Read-outs that look alike come from different tables or passages of the source.
Experiments:
[1] = Volatility of compounds measured by thermogravimetric analysis (TGA); type: physicochemical
[2] = tested on: Abutilon theophrasti (ABUTH), velvetleaf; test: Postemergence herbicide evaluation, growth of Abutilon theophrasti (ABUTH); type: in vivo; details: Abutilon theophrasti, post-emergence
[3] = tested on: Ambrosia artemisiifolia (AMBEL), common ragweed; test: Postemergence herbicide evaluation, growth of Ambrosia artemisiifolia (AMBEL); type: in vivo; details: Ambrosia artemisiifolia, post-emergence
[4] = tested on: Chenopodium album (CHEAL), common lambsquarters; test: Postemergence herbicide evaluation, growth of Chenopodium album (CHEAL); type: in vivo; details: Chenopodium album, post-emergence
[5] = tested on: weeds ABUTH, AMATA, AMBEL, CHEAL, ERICA; test: Postemergence herbicide evaluation, overall average % weed control across ABUTH, AMATA, AMBEL, CHEAL and ERICA; type: in vivo; details: post-emergence, read-out: Overall Ave % Weed Control
[6] = tested on: Amaranthus rudis (AMATA), tall water hemp; test: Postemergence herbicide evaluation, growth of Amaranthus rudis (AMATA); type: in vivo; details: Amaranthus tuberculatus, post-emergence
[7] = tested on: weeds ABUTH, AMATA, AMBEL, CHEAL, ERICA; test: Postemergence herbicide evaluation, overall average % weed control (ABUTH, AMATA, AMBEL, CHEAL, ERICA); type: in vivo; details: post-emergence, 168 h, 7 DAA, read-out: Overall Ave % Weed Control
[8] = tested on: weeds (ABUTH, AMATA, AMBEL, CHEAL, ERICA); test: Postemergence herbicide evaluation, overall average % weed control across ABUTH, AMATA, AMBEL, CHEAL, ERICA; type: in vivo; details: post-emergence, average over the five weeds, read-out: Overall Ave % Weed Control; for pest or weed control at 280 g/ha: 280 g ae/ha; for pest or weed control at 560 g/ha: 560 g ae/ha
[9] = tested on: glyphosate resistant Conyza canadensis (L.) (ERICA), horseweed; test: Postemergence herbicide evaluation, growth of Conyza canadensis (ERICA); type: in vivo; details: Erigeron canadensis, post-emergence; for pest or weed control at 280 g/ha: 280 g ae/ha; for pest or weed control at 560 g/ha: 560 g ae/ha
[10] = 168 h, 7 DAA, read-out: Ave. ERICA, percent reduction in plant size relative to the untreated control
[11] = 336 h, 14 DAA, percent reduction in plant size relative to untreated control, read-out: Ave. ERICA
[12] = 504 h, 21 DAA, percent reduction in plant size relative to untreated control, read-out: Ave. ERICA

For `O=C(COc1ccc(Cl)cc1Cl)OCCCOC(=O)COc1ccc(Cl)cc1Cl` [Compound B10], the “TGA Data (rate of weight loss, volatility)” value [1] was 0.02488 µg/min, the pest or weed control at 280 g/ha ([2]; 168 h, read-out: AVE. ABUTH) was 27.5% and the pest or weed control at 560 g/ha ([2]; 168 h, read-out: AVE. ABUTH) was 22.5%. The pest or weed control at 280 g/ha ([2]; 336 h, read-out: AVE. ABUTH) was 25%, the pest or weed control at 560 g/ha ([2]; 336 h, read-out: AVE. ABUTH) was 32.5% and the pest or weed control at 280 g/ha ([2]; 504 h, read-out: AVE. ABUTH) was 25%. It also gave a pest or weed control at 560 g/ha ([2]; 504 h, read-out: AVE. ABUTH) of 27.5%, a pest or weed control at 280 g/ha ([3]; 168 h, read-out: AVE. AMBEL) of 62.5% and a pest or weed control at 560 g/ha ([3]; 168 h, read-out: AVE. AMBEL) of 57.5%. It also gave a pest or weed control at 280 g/ha ([3]; 336 h, read-out: AVE. AMBEL) of 67.5%, a pest or weed control at 560 g/ha ([3]; 336 h, read-out: AVE. AMBEL) of 67.5% and a pest or weed control at 280 g/ha ([3]; 504 h, read-out: AVE. AMBEL) of 90%. The pest or weed control at 560 g/ha ([3]; 504 h, read-out: AVE. AMBEL) was 75%, the pest or weed control at 280 g/ha ([4]; 168 h, read-out: Ave. CHEAL) was 77.5% and the pest or weed control at 560 g/ha ([4]; 168 h, read-out: Ave. CHEAL) was 72.5%. It also gave a pest or weed control at 280 g/ha ([4]; 336 h, read-out: Ave. CHEAL) of 75%, a pest or weed control at 560 g/ha ([4]; 336 h, read-out: Ave. CHEAL) of 90% and a pest or weed control at 280 g/ha ([4]; 504 h, read-out: Ave. CHEAL) of 88.5%. The pest or weed control at 560 g/ha ([4]; 504 h, read-out: Ave. CHEAL) was 85%, the pest or weed control at 280 g/ha ([5]; 168 h) was 62% and the pest or weed control at 560 g/ha ([5]; 168 h) was 58%. For the same molecule, the pest or weed control at 280 g/ha ([5]; 336 h) was 64.5%, the pest or weed control at 560 g/ha ([5]; 336 h) was 69.9% and the pest or weed control at 280 g/ha ([5]; 504 h) was 72.2%. The pest or weed control at 560 g/ha ([5]; 504 h) was 68%, the pest or weed control at 280 g/ha ([6]; 168 h, read-out: Ave. AMATA) was 70% and the pest or weed control at 560 g/ha ([6]; 168 h, read-out: Ave. AMATA) was 62.5%. It also gave a pest or weed control at 280 g/ha ([6]; 336 h, read-out: Ave. AMATA) of 77.5%, a pest or weed control at 560 g/ha ([6]; 336 h, read-out: Ave. AMATA) of 80% and a pest or weed control at 280 g/ha ([6]; 504 h, read-out: Ave. AMATA) of 67.5%. For the same molecule, the pest or weed control at 560 g/ha ([6]; 504 h, read-out: Ave. AMATA) was 55%.

For `N/C(=N\OC(=O)COc1ccc(Cl)cc1Cl)c1ccco1` [Compound A5], the “TGA Data (rate of weight loss, volatility)” value [1] was 1.2 µg/min, the pest or weed control at 280 g/ha ([2]; 168 h, 280 g ae/ha, 7 DAA, read-out: AVE. ABUTH, percent reduction in plant size relative to the untreated control) was 38% and the pest or weed control at 560 g/ha ([2]; 168 h, 560 g ae/ha, 7 DAA, read-out: AVE. ABUTH, percent reduction in plant size relative to the untreated control) was 43%. For the same molecule, the pest or weed control at 280 g/ha ([2]; 336 h, 280 g ae/ha, 14 DAA, percent reduction in plant size relative to untreated control, read-out: AVE. ABUTH) was 40%, the pest or weed control at 560 g/ha ([2]; 336 h, 560 g ae/ha, 14 DAA, percent reduction in plant size relative to untreated control, read-out: AVE. ABUTH) was 53% and the pest or weed control at 280 g/ha ([2]; 504 h, 280 g ae/ha, 21 DAA, percent reduction in plant size relative to untreated control, read-out: AVE. ABUTH) was 30%. For the same molecule, the pest or weed control at 560 g/ha ([2]; 504 h, 560 g ae/ha, 21 DAA, percent reduction in plant size relative to untreated control, read-out: AVE. ABUTH) was 50%, the pest or weed control at 280 g/ha ([3]; 168 h, 280 g ae/ha, 7 DAA, read-out: AVE. AMBEL, percent reduction in plant size relative to the untreated control) was 60% and the pest or weed control at 560 g/ha ([3]; 168 h, 560 g ae/ha, 7 DAA, read-out: AVE. AMBEL, percent reduction in plant size relative to the untreated control) was 60%. For the same molecule, the pest or weed control at 280 g/ha ([3]; 336 h, 280 g ae/ha, 14 DAA, percent reduction in plant size relative to untreated control, read-out: AVE. AMBEL) was 78%, the pest or weed control at 560 g/ha ([3]; 336 h, 560 g ae/ha, 14 DAA, percent reduction in plant size relative to untreated control, read-out: AVE. AMBEL) was 85% and the pest or weed control at 280 g/ha ([3]; 504 h, 280 g ae/ha, 21 DAA, percent reduction in plant size relative to untreated control, read-out: AVE. AMBEL) was 78%. The pest or weed control at 560 g/ha ([3]; 504 h, 560 g ae/ha, 21 DAA, percent reduction in plant size relative to untreated control, read-out: AVE. AMBEL) was 85%, the pest or weed control at 280 g/ha ([4]; 168 h, 280 g ae/ha, 7 DAA, read-out: Ave. CHEAL, percent reduction in plant size relative to the untreated control) was 60% and the pest or weed control at 560 g/ha ([4]; 168 h, 560 g ae/ha, 7 DAA, read-out: Ave. CHEAL, percent reduction in plant size relative to the untreated control) was 63%. It also gave a pest or weed control at 280 g/ha ([4]; 336 h, 280 g ae/ha, 14 DAA, percent reduction in plant size relative to untreated control, read-out: Ave. CHEAL) of 68%, a pest or weed control at 560 g/ha ([4]; 336 h, 560 g ae/ha, 14 DAA, percent reduction in plant size relative to untreated control, read-out: Ave. CHEAL) of 63% and a pest or weed control at 280 g/ha ([4]; 504 h, 280 g ae/ha, 21 DAA, percent reduction in plant size relative to untreated control, read-out: Ave. CHEAL) of 68%. For the same molecule, the pest or weed control at 560 g/ha ([4]; 504 h, 560 g ae/ha, 21 DAA, percent reduction in plant size relative to untreated control, read-out: Ave. CHEAL) was 65%, the pest or weed control at 280 g/ha ([7]; 280 g ae/ha) was 60% and the pest or weed control at 560 g/ha ([7]; 560 g ae/ha) was 61%. For the same molecule, the pest or weed control at 280 g/ha ([8]; 336 h, 14 DAA) was 68%, the pest or weed control at 560 g/ha ([8]; 336 h, 14 DAA) was 71% and the pest or weed control at 280 g/ha ([8]; 504 h, 21 DAA) was 67%. The pest or weed control at 560 g/ha ([8]; 504 h, 21 DAA) was 72%, the pest or weed control at 280 g/ha ([6]; 168 h, 280 g ae/ha, 7 DAA, read-out: Ave. AMATA, percent reduction in plant size relative to the untreated control) was 70% and the pest or weed control at 560 g/ha ([6]; 168 h, 560 g ae/ha, 7 DAA, read-out: Ave. AMATA, percent reduction in plant size relative to the untreated control) was 65%. It also gave a pest or weed control at 280 g/ha ([6]; 336 h, 280 g ae/ha, 14 DAA, percent reduction in plant size relative to untreated control, read-out: Ave. AMATA) of 73%, a pest or weed control at 560 g/ha ([6]; 336 h, 560 g ae/ha, 14 DAA, percent reduction in plant size relative to untreated control, read-out: Ave. AMATA) of 68% and a pest or weed control at 280 g/ha ([6]; 504 h, 280 g ae/ha, 21 DAA, percent reduction in plant size relative to untreated control, read-out: Ave. AMATA) of 73%. For the same molecule, the pest or weed control at 560 g/ha ([6]; 504 h, 560 g ae/ha, 21 DAA, percent reduction in plant size relative to untreated control, read-out: Ave. AMATA) was 70%, the pest or weed control at 280 g/ha [9, 10] was 70% and the pest or weed control at 560 g/ha [9, 10] was 73%. The pest or weed control at 280 g/ha [9, 11] was 83%, the pest or weed control at 560 g/ha [9, 11] was 85% and the pest or weed control at 280 g/ha [9, 12] was 88%. For the same molecule, the pest or weed control at 560 g/ha [9, 12] was 88%.
